Test results: US10920248B2, “Method for mass-producing viniferin using stevioside from cell culture of grapevine tissue” (KOREA RESEARCH INSTITUTE OF BIOSCIENCE AND BIOTECHNOLOGY, priority 2016, dated 2021)

What was measured:
[1] = system: resveratrol biosynthesis gene (STS, ROMT); test: Transcription expression analysis (RT-PCR) of resveratrol biosynthesis genes after activity-inducing agent treatment of grape callus liquid culture; format: cell-based, Vitis vinifera L. cv Campbell Early; conditions: FIG. 2; for expression of the two genes (STS, ROMT): grape callus in MS1D liquid medium, 24 hours after treatment, RT-PCR
Method: In order to establish a production system of resveratrol from grape callus, transcription expression analysis was performed through a liquid culture of stabilized grape callus derived in Example 1 as described above. It was performed in which they were cultured in MS1D (4.4 g of MS, 30 g of sucrose, 0.5 g of MES, 0.1 g of Miyo-inositol, 0.4 mg thiamine HCl, and 1 mg/L of 2,4-D), which is called a Murashige & Skoog (MS) medium containing 1 mg/L of 2,4-D, liquid medium at 25° C. and 90 rpm for 7 days, followed by treatment with an activity-inducing agent. After 24 hours, total RNA was isolated from the grape callus (Kim C Y et al. 2010, Physiologia plantarum 139: 259-261). cDNA was synthesized from the isolated total RNA (5 μg) using First-Strand cDNA Synthesis Kit (Fermantas, Canada) as described in the instruction. The synthesized cDNA (20 μl) was diluted 2.5 times and then subjected to RT-PCR using 2 μl as a template for genes related to resveratrol and pterostilbene biosynthesis from the grape callus. PCR amplification was carried out by denaturation at 94° C. for 2 minutes, 25 cycles of at 95° C. for 30 seconds, 50° C. for 40 seconds, and 72° C. for 1 minute, and a final extension reaction at 72° C. for 10 minutes. The grape resveratrol, pterostilbene biosynthesis gene, and grapactin RT-PCR primers used for this experiment were as follows: […]
Various activity-inducing agents were used for the treatment so as to promote the production of stilbene compound. The activity-inducing agents used herein were methyl jasmonate (MeJA), abscisic acid (ABA), salicylic acid (SA), ethephon, flagellin 22 (Flg22), methyl viologen (MV), and chitosan. The results confirmed that the expression of the two genes increased when MeJA, SA, and Flg22 were used and that the gene expression was the highest when MeJA was used (see FIG. 2).

grape callus = test: Production of stilbene compounds in grape callus culture treated with activity-inducing agent and solubilizing agent, HPLC analysis of culture extract; format: cell-based, Vitis vinifera L. cv Campbell Early; conditions: with 100 μM MeJA, 7-day grape callus culture medium, 50 mM stevioside, FIG. 3
Method: Production of stilbene compounds was induced using the activity-inducing agent (100 μM MeJA) selected in Example 2 as described above. 20 ml of MS was inoculated with 2 g of grape callus, then cultured in a 125 ml flask for 7 days. Then, it was treated with 100 μM MeJA to obtain grape callus after 5 days. HPLC analysis was performed on the extract thereof. […] The experiment was performed to increase the production rate by solubilizing stilbene compound produced by treating with stevioside. As described above, 7-day grape callus culture was treated with 5 mM, 10 mM, 25 mM, and 50 mM stevioside at different concentrations or was treated with 100 μM MeJA and 5 mM, 10 mM, 2 5 mM, and 50 mM stevioside at different concentrations. After 5 days of culture, the samples were separated into callus and callus culture using a filter. The separated callus was filtered, followed by dehydration. The callus was frozen with liquid nitrogen and stored at −80° C. until extraction. The callus culture extract was directly extracted from the callus culture sample without storage so as to be used. […]

| SMILES | gene expression compared among activity-inducing agents ([1]; compared with ABA, SA, ethephon, Flg22, MV, chitosan) | expression of the two genes (STS, ROMT) [1] | content of the stilbene compound compared to the group untreated with stevioside (grape callus) |
| --- | --- | --- | --- |
| CC/C=C\CC1C(=O)CCC1CC(=O)OC (stereo not shown) [MeJA, methyl jasmonate] | highest | increased | – |
| O=C(O)c1ccccc1O [SA, salicylic acid] | – | increased | – |
| C=C1C[C@@]23CC[C@H]4[C@@](C)(CCC[C@@]4(C)C(=O)O[C@@H]4O[C@H](CO)[C@@H](O)[C@H](O)[C@H]4O)[C@@H]2CC[C@]1(O[C@@H]1O[C@H](CO)[C@@H](O)[C@H](O)[C@H]1O[C@@H]1O[C@H](CO)[C@@H](O)[C@H](O)[C@H]1O)C3 [stevioside] | – | – | significantly increased |
